Source: publication PMC8258697 (The Journal of Biological Chemistry, 2021)
Residue numbers refer to the chain shown, from its start.

What was measured:
PPARγ LBD = molecular target: T1, PPARγ LBD (Homo sapiens, UniProt P37231); assay: Monomer cofactor recruitment HTRF assay: CBP-1 recruitment by isolated sGFP-PPARγ LBD; format: biochemical; conditions: titrated alone, or constant 10 μM against titrated rosiglitazone
T1 construct: His10-tag with TEV site (N, cleaved yes); made in house; host or cells: E. coli T7 express (co-expressed with GroEL/ES)
T1 sequence (P37231 234-505): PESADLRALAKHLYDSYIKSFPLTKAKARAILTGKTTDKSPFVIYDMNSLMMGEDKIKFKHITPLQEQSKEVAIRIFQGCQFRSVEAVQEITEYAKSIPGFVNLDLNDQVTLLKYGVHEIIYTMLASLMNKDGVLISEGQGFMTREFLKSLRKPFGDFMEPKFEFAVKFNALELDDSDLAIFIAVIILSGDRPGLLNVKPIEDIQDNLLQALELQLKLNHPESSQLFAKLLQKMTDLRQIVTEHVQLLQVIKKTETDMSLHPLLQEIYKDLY

RXRα total mutant LBD = molecular target: T2, RXRα total mutant LBD (Homo sapiens, UniProt P19793, E453R/F450Y/K284E/V280T/V298T); assay: Isothermal titration calorimetry, RXRα total mutant LBD; format: binding; conditions: 25°C
T2 construct: MBP-Asn10-His8-TEV site (N, cleaved yes); made in house; host or cells: E. coli T7 express (co-expressed with GroEL/ES)
T2 sequence (P19793 223-462 V280T/K284E/V298T/F450Y/E453R): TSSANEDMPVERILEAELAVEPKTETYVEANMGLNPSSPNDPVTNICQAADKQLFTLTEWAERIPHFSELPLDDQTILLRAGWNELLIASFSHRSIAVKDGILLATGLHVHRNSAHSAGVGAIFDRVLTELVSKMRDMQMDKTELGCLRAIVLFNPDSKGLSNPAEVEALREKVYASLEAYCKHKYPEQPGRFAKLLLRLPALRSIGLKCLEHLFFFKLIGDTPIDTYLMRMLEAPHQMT
Experimental: (§1) SI method 1: LBD pulldown
(§2) In order to verify proper dimer formation capability of the majority of the protein preparation a pulldown experiment was performed. Therefore, small centrifugal filter columns (nylon membrane with […] pore size; VWR) were loaded with 20 µl of Pierce® high capacity streptavidin agarose beads (Thermo Scientific) equilibrated in HTRF buffer [25 mM HEPES pH 7.5, 150 mM KF, 10% (w/v) glycerol, 5 mM DTT (fresh)], then 20 µl of a mixture of biotin coupled RXRα LBD (4 µg) and the respective PPAR LBD (1.4 µg) was applied. After incubation for 10 min at room temperature followed by centrifugation for 2 min and 900 x g the input mixture as well as the flowthrough was analyzed via SDS PAGE. Gels were scanned using an Li-Cor Odyssey imager (LI-COR® Biosciences GmbH, Germany). Missing bands in comparison to the input control were interpreted in two different ways. […]
(§3) The heats of dilution resulting from titrating one of the RXRα LBD proteins into the cell containing only buffer were recorded separately and subtracted from the raw ITC data obtained with compound. Data were analyzed using the NanoAnalyze software package (version 3.7.5). […] Free energy change (ΔG) was calculated using the equation […]
(§4) and from there the entropy (ΔS) was calculated from […]
µM SR11237. […] The heats of dilution resulting from titrating of protein into buffer were recorded separately and subtracted. […]

RXRα LBD total mutant = molecular target: T3, RXRα LBD total mutant (Homo sapiens, UniProt P19793, E453R/F450Y/K284E/V280T/V298T); assay: Coactivator recruitment HTRF assay on isolated RXRα LBD total mutant (SRC1-2 peptide); format: biochemical; conditions: 100 nM sGFP-RXRα LBD total mutant
T3 construct: His10-tag with TEV site (N, cleaved yes); made in house; host or cells: E. coli T7 express (co-expressed with GroEL/ES)
T3 sequence (P19793 226-462 V280T/K284E/V298T/F450Y/E453R): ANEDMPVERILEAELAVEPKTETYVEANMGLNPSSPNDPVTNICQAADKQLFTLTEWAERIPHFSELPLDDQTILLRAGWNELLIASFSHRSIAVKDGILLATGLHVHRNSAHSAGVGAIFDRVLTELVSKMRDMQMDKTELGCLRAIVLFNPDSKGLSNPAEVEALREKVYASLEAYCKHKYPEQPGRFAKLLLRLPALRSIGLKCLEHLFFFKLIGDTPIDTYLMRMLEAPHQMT

PPARγ:RXRα heterodimer = molecular target: T4, PPARγ:RXRα heterodimer (Homo sapiens, UniProt P19793+P37231); assay: PPARγ:RXRα heterodimer formation HTRF assay, sGFP-RXRα LBD titrated against biotinylated PPARγ LBD coupled to Tb-SA; format: binding; conditions: 10 μM ligand compared with no ligand
T4 construct: His10-tag with TEV site (N, cleaved yes); made in house; host or cells: E. coli T7 express (co-expressed with GroEL/ES)
T4 sequence (P37231 234-505): T1 sequence (P37231 234-505)
T4 sequence (P19793 226-462): T3 sequence (P19793 226-462 V280T/K284E/V298T/F450Y/E453R) with T55V, E59K, T73V, Y225F, R228E

RXRα wildtype LBD = molecular target: T5, RXRα wildtype LBD (Homo sapiens, UniProt P19793); assay: Isothermal titration calorimetry, RXRα wildtype LBD; format: binding; conditions: 25°C
T5 construct: MBP-Asn10-His8-TEV site (N, cleaved yes); made in house; host or cells: E. coli T7 express (co-expressed with GroEL/ES)
T5 sequence (P19793 223-462): T2 sequence (P19793 223-462 V280T/K284E/V298T/F450Y/E453R) with T58V, E62K, T76V, Y228F, R231E
Experimental: as §1
as §2, with “Germany).” for “Germany). Missing bands in comparison to the input control were interpreted in two different ways.”
as §3, §4
25 injections of 2 µl were performed after an initial injection of 0.5 µl. […] The heats of dilution resulting from titrating of protein into buffer were recorded separately and subtracted. […]

CC1(C)CCC(C)(C)c2cc(C3(c4ccc(C(=O)O)cc4)OCCO3)ccc21 [SR11237]
effect on CBP-1 recruitment by isolated PPARγ LBD (PPARγ LBD): neither activated recruitment of CBP-1 by PPARγ nor impaired rosiglitazone-mediated recruitment | binding affinity (ITC) (RXRα total mutant LBD): comparable affinity | stimulation of SRC1-2 coactivator recruitment (RXRα LBD total mutant): no stimulation of coactivator recruitment was observed | effect on PPARγ:RXRα heterodimer formation (PPARγ:RXRα heterodimer): significant stabilizing effect | binding affinity (ITC) (RXRα wildtype LBD): comparable affinity
